Data published in ChEMBL document CHEMBL5030544, “Synthesis, anti-microbial, toxicity and molecular docking studies of N-nitroso-N-phenylhydroxylamine (cupferron) and its derivatives” (Bioorg Med Chem Lett, 2021).
In brackets after ≈: the same amount, converted by molar mass. Activity calls are given as the source filed them. The rule behind the calls is not given here.

How the values were obtained:
Streptococcus pyogenes [1] = experiment: Antibacterial activity against Streptococcus pyogenes ATCC 19615 assessed as zone of inhibition at 15 mg/ml; type: functional; conditions: for zone of inhibition at 15000 µg/mL: read-out: IZ
Bacillus subtilis [2] = experiment: Antibacterial activity against Bacillus subtilis ATCC 23857 assessed as zone of inhibition at 10 mg/ml; type: functional; conditions: for zone of inhibition at 10000 µg/mL: read-out: IZ
Salmonella typhi [3] = experiment: Antibacterial activity against Salmonella typhi ATCC 6539 assessed as zone of inhibition at 15 mg/kg; type: functional; conditions: for zone of inhibition at 15 mg/kg: Salmonella enterica, read-out: IZ
Streptococcus pyogenes [4] = experiment: Antibacterial activity against Streptococcus pyogenes ATCC 19615 assessed as zone of inhibition at 10 mg/ml; type: functional; conditions: for zone of inhibition at 10000 µg/mL: read-out: IZ
Corynebacterium [5] = experiment: Antibacterial activity against Corynebacterium ATCC 49368 assessed as zone of inhibition at 15 mg/ml; type: functional; conditions: for zone of inhibition at 15000 µg/mL: read-out: IZ
Bacillus subtilis [6] = experiment: Antibacterial activity against Bacillus subtilis ATCC 23857 assessed as zone of inhibition at 5 mg/ml; type: functional; conditions: for zone of inhibition at 5000 µg/mL: read-out: IZ
Staphylococcus aureus [7] = experiment: Antibacterial activity against Staphylococcus aureus […] assessed as bacterial growth inhibition; type: functional
Bacillus subtilis [8] = experiment: Antibacterial activity against Bacillus subtilis ATCC 23857 assessed as zone of inhibition at 15 mg/ml; type: functional; conditions: for zone of inhibition at 15000 µg/mL: read-out: IZ
Staphylococcus aureus [9] = experiment: Antibacterial activity against Staphylococcus aureus […] assessed as zone of inhibition at 5 mg/ml; type: functional; conditions: for zone of inhibition at 5000 µg/mL: read-out: IZ
Salmonella typhi [10] = experiment: Antibacterial activity against Salmonella typhi ATCC 6539 assessed as zone of inhibition at 10 mg/kg; type: functional; conditions: for zone of inhibition at 10 mg/kg: Salmonella enterica, read-out: IZ
Staphylococcus aureus [11] = experiment: Antibacterial activity against Staphylococcus aureus […] assessed as zone of inhibition at 15 mg/ml; type: functional; conditions: for zone of inhibition at 15000 µg/mL: read-out: IZ
Salmonella typhi [12] = experiment: Antibacterial activity against Salmonella typhi ATCC 6539 assessed as bacterial growth inhibition; type: functional
Staphylococcus aureus [13] = experiment: Antibacterial activity against Staphylococcus aureus […] assessed as zone of inhibition at 10 mg/ml; type: functional; conditions: for zone of inhibition at 10000 µg/mL: read-out: IZ
Streptococcus pyogenes [14] = experiment: Antibacterial activity against Streptococcus pyogenes ATCC 19615 assessed as zone of inhibition at 5 mg/ml; type: functional; conditions: for zone of inhibition at 5000 µg/mL: read-out: IZ
Corynebacterium [15] = experiment: Antibacterial activity against Corynebacterium ATCC 49368 assessed as zone of inhibition at 10 mg/ml; type: functional; conditions: for zone of inhibition at 10000 µg/mL: read-out: IZ
Escherichia coli [16] = experiment: Antibacterial activity against Escherichia coli ATCC 25922 assessed as zone of inhibition at 15 mg/ml; type: functional; conditions: read-out: IZ
Klebsiella pneumoniae [17] = experiment: Antibacterial activity against Klebsiella pneumoniae ATCC 13883 assessed as zone of inhibition at 10 mg/kg; type: functional; conditions: read-out: IZ
Bacillus subtilis [18] = experiment: Antibacterial activity against Bacillus subtilis ATCC 23857 assessed as bacterial growth inhibition; type: functional
Corynebacterium [19] = experiment: Antibacterial activity against Corynebacterium ATCC 49368 assessed as zone of inhibition at 5 mg/ml; type: functional; conditions: read-out: IZ
Escherichia coli [20] = experiment: Antibacterial activity against Escherichia coli ATCC 25922 assessed as zone of inhibition at 10 mg/ml; type: functional; conditions: read-out: IZ
Pseudomonas aeruginosa [21] = experiment: Antibacterial activity against Pseudomonas aeruginosa ATCC 27853 assessed as zone of inhibition at 10 mg/ml; type: functional; conditions: read-out: IZ
Corynebacterium [22] = experiment: Antibacterial activity against Corynebacterium ATCC 49368 assessed as bacterial growth inhibition; type: functional
Pseudomonas aeruginosa [23] = experiment: Antibacterial activity against Pseudomonas aeruginosa ATCC 27853 assessed as zone of inhibition at 5 mg/ml; type: functional; conditions: read-out: IZ
Pseudomonas aeruginosa [24] = experiment: Antibacterial activity against Pseudomonas aeruginosa ATCC 27853 assessed as zone of inhibition at 15 mg/ml; type: functional; conditions: read-out: IZ
Klebsiella pneumoniae [25] = experiment: Antibacterial activity against Klebsiella pneumoniae ATCC 13883 assessed as zone of inhibition at 15 mg/kg; type: functional; conditions: read-out: IZ
Escherichia coli [26] = experiment: Antibacterial activity against Escherichia coli ATCC 25922 assessed as bacterial growth inhibition; type: functional
Streptococcus pyogenes [27] = experiment: Antibacterial activity against Streptococcus pyogenes ATCC 19615 assessed as bacterial growth inhibition; type: functional
Klebsiella pneumoniae [28] = experiment: Antibacterial activity against Klebsiella pneumoniae ATCC 13883 assessed as bacterial growth inhibition; type: functional
Klebsiella pneumoniae [29] = experiment: Antibacterial activity against Klebsiella pneumoniae ATCC 13883 assessed as zone of inhibition at 5 mg/kg; type: functional; conditions: read-out: IZ
Pseudomonas aeruginosa [30] = experiment: Antibacterial activity against Pseudomonas aeruginosa ATCC 27853 assessed as bacterial growth inhibition; type: functional
LLC-PK1 = experiment: Cytotoxicity against pig LLC-PK1 cells at up to 100 uM by MTT assay; type: cell-based, Sus scrofa
Escherichia coli [31] = experiment: Antibacterial activity against Escherichia coli ATCC 25922 assessed as zone of inhibition at 5 mg/ml; type: functional; conditions: read-out: IZ
Salmonella typhi [32] = experiment: Antibacterial activity against Salmonella typhi ATCC 6539 assessed as zone of inhibition at 5 mg/kg; type: functional, Salmonella enterica subsp. enterica serovar Typhi; conditions: Salmonella enterica, read-out: IZ
HepG2 = experiment: Cytotoxicity against human HepG2 cells at up to 100 uM by MTT assay; type: cell-based
[33] = Salmonella enterica subsp. enterica serovar Typhi

Compound	MIC (Staphylococcus aureus [7])	zone of inhibition at 15000 µg/mL (Streptococcus pyogenes [1])	MIC (Bacillus subtilis [18])	zone of inhibition at 10000 µg/mL (Bacillus subtilis [2])	zone of inhibition at 10000 µg/mL (Streptococcus pyogenes [4])	zone of inhibition at 15000 µg/mL (Corynebacterium [5])	zone of inhibition at 5000 µg/mL (Bacillus subtilis [6])	zone of inhibition at 15000 µg/mL (Bacillus subtilis [8])	zone of inhibition at 5000 µg/mL (Staphylococcus aureus [9])	zone of inhibition at 10000 µg/mL (Pseudomonas aeruginosa [21])	MIC (Corynebacterium [22])	zone of inhibition at 15000 µg/mL (Staphylococcus aureus [11])	zone of inhibition at 10000 µg/mL (Staphylococcus aureus [13])	zone of inhibition at 15000 µg/mL (Pseudomonas aeruginosa [24])	zone of inhibition at 15 mg/kg (Klebsiella pneumoniae [25])	zone of inhibition at 5000 µg/mL (Streptococcus pyogenes [14])	zone of inhibition at 10000 µg/mL (Corynebacterium [15])	MIC (Escherichia coli [26])	MIC (Streptococcus pyogenes [27])	MIC (Klebsiella pneumoniae [28])	further results
GENTAMICIN	8 µg/mL																				inhibition zone (IZ) (Streptococcus pyogenes [1]): 25 mm; inhibition zone (IZ) (Bacillus subtilis [2]): 10 mm; inhibition zone (IZ) (Salmonella typhi [3]; [33]): 26 mm; inhibition zone (IZ) (Streptococcus pyogenes [4]): 13 mm; inhibition zone (IZ) (Corynebacterium [5]): 23 mm; inhibition zone (IZ) (Bacillus subtilis [6]): 5 mm; inhibition zone (IZ) (Bacillus subtilis [8]): 24 mm; inhibition zone (IZ) (Staphylococcus aureus [9]): 10 mm; inhibition zone (IZ) (Salmonella typhi [10]; [33]): 12 mm; inhibition zone (IZ) (Staphylococcus aureus [11]): 22 mm; MIC (Salmonella typhi [12]; [33]): 16 µg/mL; inhibition zone (IZ) (Staphylococcus aureus [13]): 11 mm; inhibition zone (IZ) (Streptococcus pyogenes [14]): 3 mm; inhibition zone (IZ) (Corynebacterium [15]): 10 mm
O=C(O)c1cn(C2CC2)c2cc(N3CCNCC3)c(F)cc2c1=O [CIPROFLOXACIN]		26 mm	2 µg/mL (≈ 6.04 µM)	15 mm	13 mm	19 mm	12 mm	27 mm	7 mm	18 mm	4 µg/mL (≈ 12.1 µM)	22 mm	10 mm	25 mm	25 mm	10 mm	16 mm				zone of inhibition at 15000 µg/mL (Escherichia coli [16]): 10 mm; zone of inhibition at 10 mg/kg (Klebsiella pneumoniae [17]): 12 mm; zone of inhibition at 5000 µg/mL (Corynebacterium [19]): 10 mm; zone of inhibition at 15 mg/kg (Salmonella typhi [3]): 32 mm; zone of inhibition at 10000 µg/mL (Escherichia coli [20]): 11 mm; zone of inhibition at 5000 µg/mL (Pseudomonas aeruginosa [23]): 15 mm; zone of inhibition at 10 mg/kg (Salmonella typhi [10]): 15 mm
N.O=NN(O)c1ccc(CCl)cc1	16 µg/mL	18 mm	16 µg/mL	14 mm	12 mm	17 mm	10 mm	18 mm	8 mm	10 mm	16 µg/mL	20 mm	12 mm	15 mm	10 mm	10 mm	14 mm	inactive	8 µg/mL	inactive	zone of inhibition at 10 mg/kg (Klebsiella pneumoniae [17]): 7 mm; zone of inhibition at 5000 µg/mL (Corynebacterium [19]): 13 mm; MIC (Salmonella typhi [12]; [33]): inactive
CN[C@@H]1[C@H](O[C@H]2[C@H](O[C@H]3[C@H](O)[C@@H](O)[C@H](N=C(N)N)[C@@H](O)[C@@H]3N=C(N)N)O[C@@H](C)[C@]2(O)C=O)O[C@@H](CO)[C@H](O)[C@H]1O [STREPTOMYCIN]		10 mm		10 mm	3 mm	20 mm		20 mm	2 mm	11 mm		8 mm	4 mm	15 mm	14 mm	2 mm	8 mm	16 µg/mL (≈ 27.5 µM)	8 µg/mL (≈ 13.8 µM)	16 µg/mL (≈ 27.5 µM)	
N.O=NN(O)c1ccccc1	20 µg/mL	20 mm	16 µg/mL	15 mm	10 mm	10 mm	10 mm	17 mm			20 µg/mL	12 mm	9 mm			8 mm		inactive	20 µg/mL	inactive	MIC (Staphylococcus aureus [9]): inactive; MIC (Salmonella typhi [12]; Salmonella enterica): 20 µg/mL
N.O=NN(O)c1ccc(Cl)cc1	4 µg/mL	27 mm	2 µg/mL	19 mm	15 mm	23 mm	14 mm	35 mm	9 mm	10 mm	8 µg/mL	25 mm	9 mm	13 mm	15 mm	12 mm	16.1 mm	20 µg/mL	4 µg/mL	20 µg/mL	zone of inhibition at 15000 µg/mL (Escherichia coli [16]): 20 mm; zone of inhibition at 10 mg/kg (Klebsiella pneumoniae [17]): 11 mm; zone of inhibition at 5000 µg/mL (Corynebacterium [19]): 13 mm; zone of inhibition at 15 mg/kg (Salmonella typhi [3]): 19 mm; zone of inhibition at 5 mg/kg (Klebsiella pneumoniae [29]): 8 mm; zone of inhibition at 10000 µg/mL (Escherichia coli [20]): 14 mm; zone of inhibition at 5000 µg/mL (Pseudomonas aeruginosa [23]): 5 mm; zone of inhibition at 10 mg/kg (Salmonella typhi [10]): 13 mm; MIC (Pseudomonas aeruginosa [30]): 20 µg/mL; MIC (Salmonella typhi [12]; Salmonella enterica): 20 µg/mL; Activity (LLC-PK1): Non-Toxic; zone of inhibition at 5000 µg/mL (Escherichia coli [31]): 10 mm; zone of inhibition at 5 mg/kg (Salmonella typhi [32]): 9 mm; Activity (HepG2): Non-Toxic
